Laboratory results from patent publication US20080275058A1, “N-Substituted-1H-Quinoline-2,4-Diones, Preparation Method Thereof, And Pharmaceutical Composition Containing The Same” (KOREA RESEARCH INSTITUTE OF CHEMICAL TECHNOLOGY, priority 2005, published 2008).
Like-named read-outs stand apart in the source and are kept apart here.

Key:
5-HT2c = target: T1, 5-HT2c (Homo sapiens, UniProt P28335); experiment: Radioligand binding, 5-HT2c ([3H]Mesulergine); conditions: Table 4; [3H]Mesulergine 1 nM; read-out: Binding affinity, IC50 (nM) 5-HT2c
T1 construct: purchased Euroscreen/BioSignal Packard Inc
T1 sequence (P28335 33-458): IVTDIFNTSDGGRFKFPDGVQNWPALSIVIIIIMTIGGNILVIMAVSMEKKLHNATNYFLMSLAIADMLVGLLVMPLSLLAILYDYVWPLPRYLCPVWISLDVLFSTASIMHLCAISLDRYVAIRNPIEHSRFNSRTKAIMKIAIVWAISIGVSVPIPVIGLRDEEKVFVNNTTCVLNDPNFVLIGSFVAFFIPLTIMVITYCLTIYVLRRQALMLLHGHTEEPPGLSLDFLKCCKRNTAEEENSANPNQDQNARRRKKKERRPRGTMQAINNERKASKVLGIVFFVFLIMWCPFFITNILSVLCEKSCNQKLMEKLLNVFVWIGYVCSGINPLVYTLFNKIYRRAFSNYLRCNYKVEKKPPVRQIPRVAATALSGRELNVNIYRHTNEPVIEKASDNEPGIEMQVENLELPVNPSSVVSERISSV

[1] = target: T2, Human serotonin 5-HT6 receptor (Homo sapiens, UniProt P50406); experiment: [3H]LSD binding assay on cloned 5-HT6 receptor membranes
T2 construct: made in house; host or cells: insect Sf21 cells (baculovirus vector BacPAK8)
T2 sequence (P50406 whole entry): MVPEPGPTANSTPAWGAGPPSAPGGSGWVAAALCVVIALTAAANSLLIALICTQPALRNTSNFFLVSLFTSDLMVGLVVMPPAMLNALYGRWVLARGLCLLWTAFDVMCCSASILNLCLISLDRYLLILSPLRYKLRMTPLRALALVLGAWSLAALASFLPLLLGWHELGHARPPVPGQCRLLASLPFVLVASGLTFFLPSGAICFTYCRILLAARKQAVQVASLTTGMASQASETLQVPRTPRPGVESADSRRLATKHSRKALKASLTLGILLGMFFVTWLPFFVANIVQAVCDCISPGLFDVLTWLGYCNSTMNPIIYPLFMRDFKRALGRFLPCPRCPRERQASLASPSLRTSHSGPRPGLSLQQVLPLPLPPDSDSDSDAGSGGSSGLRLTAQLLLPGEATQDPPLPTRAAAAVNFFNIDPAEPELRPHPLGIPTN

D1 = D1 (Homo sapiens, UniProt P21728); experiment: Radioligand binding, dopamine D1; conditions: Table 4; read-out: Binding affinity, IC50 (nM) D1
Sequence of D1 (P21728 whole entry): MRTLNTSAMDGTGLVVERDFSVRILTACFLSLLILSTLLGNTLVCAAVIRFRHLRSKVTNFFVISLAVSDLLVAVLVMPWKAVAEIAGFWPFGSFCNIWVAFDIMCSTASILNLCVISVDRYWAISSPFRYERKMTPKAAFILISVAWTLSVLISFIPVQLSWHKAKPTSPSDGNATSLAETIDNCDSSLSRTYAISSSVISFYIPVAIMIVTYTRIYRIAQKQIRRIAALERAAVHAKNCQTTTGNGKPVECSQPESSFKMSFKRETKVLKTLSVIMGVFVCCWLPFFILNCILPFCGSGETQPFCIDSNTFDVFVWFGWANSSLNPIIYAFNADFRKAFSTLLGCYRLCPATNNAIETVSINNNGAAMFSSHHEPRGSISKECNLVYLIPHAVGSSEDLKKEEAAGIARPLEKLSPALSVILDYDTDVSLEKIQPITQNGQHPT

hD4.2 receptor = target: T3, hD4.2 receptor (Homo sapiens, UniProt P21917, DEL265-296); experiment: Radioligand binding, dopamine D4 ([3H]YM-09151-2); conditions: Table 4; [3H]YM-09151-2 0.06 nM; read-out: Binding affinity, IC50 (nM) D4
T3 construct: purchased BioSignal Packard Inc., Montreal, Canada
T3 sequence (P21917 with tags, fused parts or gaps DEL265-296): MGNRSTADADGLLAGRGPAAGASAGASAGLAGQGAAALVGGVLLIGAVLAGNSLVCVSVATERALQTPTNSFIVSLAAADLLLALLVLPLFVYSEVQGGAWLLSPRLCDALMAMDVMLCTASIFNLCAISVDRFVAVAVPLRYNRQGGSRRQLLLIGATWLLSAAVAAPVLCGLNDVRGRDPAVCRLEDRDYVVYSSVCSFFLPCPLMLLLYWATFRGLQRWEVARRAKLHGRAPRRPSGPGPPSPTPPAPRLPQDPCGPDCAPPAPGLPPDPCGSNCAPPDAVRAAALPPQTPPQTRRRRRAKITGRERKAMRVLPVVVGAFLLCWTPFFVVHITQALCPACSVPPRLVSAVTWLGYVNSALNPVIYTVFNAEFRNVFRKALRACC
Description: (§1) 2-2: Binding assays of Dopamine Receptor Family
(§2) The radioligands used were [^3H] spiperone (for hD2L and hD3 receptors, 1 nM) and [^3H] YM-09151-2 (for hD4.2 receptor, 0.06 nM). Radioligand bindings were performed by the protocols provided by the supplier of receptor membranes (BioSignal Packard Inc., Montreal, Canada). Briefly, the buffer used in D2 or D3 receptor binding assay was 50 mM Tris-HCl (pH 7.4), 10 mM MgCl2, 1 mM EDTA, or 50 mM Tris-HCl (pH 7.4), 5 mM MgCl2, 5 mM EDTA, 5 mM KCl, 1.5 mM CaCl2, 120 mM NaCl, respectively. In [^3H] YM-09151-2 receptor binding assays, the buffer containing 50 mM Tris-HCl (pH 7.4), 5 mM MgCl2, 5 mM EDTA, 5 mM KCl and 1.5 mM CaCl2 was used. […] Competition binding studies were carried out with 7-8 concentrations of the test compound run in duplicate tubes, and isotherms from three assays were calculated by computerized nonlinear regression analysis (GraphPad Prism Program, San Diego, […]) to yield median inhibitory concentration (IC50) values.

5-HT2a = target: T4, 5-HT2a (Homo sapiens, UniProt P28223); experiment: Radioligand binding, 5-HT2a ([3H]Ketanserin); conditions: Table 4; [3H]Ketanserin 1 nM; read-out: Binding affinity, IC50 (nM) 5-HT2a
T4 construct: purchased Euroscreen/BioSignal Packard Inc
T4 sequence (P28223 whole entry): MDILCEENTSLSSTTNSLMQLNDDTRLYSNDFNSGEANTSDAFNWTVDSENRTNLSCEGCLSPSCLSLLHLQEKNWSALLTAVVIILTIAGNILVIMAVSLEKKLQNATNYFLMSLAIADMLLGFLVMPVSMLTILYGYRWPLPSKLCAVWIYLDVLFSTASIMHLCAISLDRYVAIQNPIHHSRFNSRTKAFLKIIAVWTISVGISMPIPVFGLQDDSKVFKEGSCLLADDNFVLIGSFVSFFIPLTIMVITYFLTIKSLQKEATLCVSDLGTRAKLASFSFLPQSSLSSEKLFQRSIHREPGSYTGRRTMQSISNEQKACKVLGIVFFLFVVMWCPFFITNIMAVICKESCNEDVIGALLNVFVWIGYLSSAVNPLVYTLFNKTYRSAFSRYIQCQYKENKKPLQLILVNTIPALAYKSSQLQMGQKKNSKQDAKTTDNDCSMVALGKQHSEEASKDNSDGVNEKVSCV

5-HT1a = target: T5, 5-HT1a (Homo sapiens, UniProt P08908); experiment: Radioligand binding, 5-HT1a ([3H]8-OH-DPAT); conditions: Table 4; [3H]8-OH-DPAT 0.5 nM; read-out: Binding affinity, IC50 (nM) 5-HT1a
T5 construct: purchased Euroscreen/BioSignal Packard Inc
T5 sequence (P08908 1-422): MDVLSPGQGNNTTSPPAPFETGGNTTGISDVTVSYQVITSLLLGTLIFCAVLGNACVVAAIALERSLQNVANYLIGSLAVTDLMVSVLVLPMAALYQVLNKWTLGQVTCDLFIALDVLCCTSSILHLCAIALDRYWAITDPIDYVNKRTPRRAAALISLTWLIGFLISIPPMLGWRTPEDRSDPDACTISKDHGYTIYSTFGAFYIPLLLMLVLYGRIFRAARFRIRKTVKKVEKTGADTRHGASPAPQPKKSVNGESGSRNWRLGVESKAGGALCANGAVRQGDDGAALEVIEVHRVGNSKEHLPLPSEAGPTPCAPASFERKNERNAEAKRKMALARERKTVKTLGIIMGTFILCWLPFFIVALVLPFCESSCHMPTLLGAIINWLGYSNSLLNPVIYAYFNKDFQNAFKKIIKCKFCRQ
Description: Radioligand bindings were performed according to the test method provided by the supplier of receptor membrane (Euroscreen/BioSignal Packard Inc.). The detailed assay conditions and the results were shown in the following Table 3 and Table 4, respectively.

hD2L = target: T6, hD2L (Homo sapiens, UniProt P14416); experiment: Radioligand binding, dopamine D2 ([3H]spiperone); conditions: Table 4; [3H]spiperone 1 nM; read-out: Binding affinity, IC50 (nM) D2
T6 construct: purchased BioSignal Packard Inc., Montreal, Canada
T6 sequence (P14416 whole entry): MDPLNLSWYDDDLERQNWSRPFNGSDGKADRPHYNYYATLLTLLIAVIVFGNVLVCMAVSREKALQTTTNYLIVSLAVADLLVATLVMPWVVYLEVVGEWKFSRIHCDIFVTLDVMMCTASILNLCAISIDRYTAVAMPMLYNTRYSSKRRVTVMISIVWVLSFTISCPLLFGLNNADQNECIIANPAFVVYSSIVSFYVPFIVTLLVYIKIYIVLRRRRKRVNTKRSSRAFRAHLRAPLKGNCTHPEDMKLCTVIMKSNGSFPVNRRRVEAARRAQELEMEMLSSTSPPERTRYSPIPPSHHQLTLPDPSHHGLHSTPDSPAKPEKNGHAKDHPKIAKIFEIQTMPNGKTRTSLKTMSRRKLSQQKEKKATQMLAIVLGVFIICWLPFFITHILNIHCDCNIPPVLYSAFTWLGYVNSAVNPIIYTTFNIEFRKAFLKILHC
Description: as §1, §2

5-HT7 = target: T7, 5-HT7 (Homo sapiens, UniProt P34969); experiment: Radioligand binding, 5-HT7 ([3H]LSD); conditions: Table 4; [3H]LSD 3 nM; read-out: Binding affinity, IC50 (nM) 5-HT7
T7 construct: purchased Euroscreen/BioSignal Packard Inc
T7 sequence (P34969 whole entry): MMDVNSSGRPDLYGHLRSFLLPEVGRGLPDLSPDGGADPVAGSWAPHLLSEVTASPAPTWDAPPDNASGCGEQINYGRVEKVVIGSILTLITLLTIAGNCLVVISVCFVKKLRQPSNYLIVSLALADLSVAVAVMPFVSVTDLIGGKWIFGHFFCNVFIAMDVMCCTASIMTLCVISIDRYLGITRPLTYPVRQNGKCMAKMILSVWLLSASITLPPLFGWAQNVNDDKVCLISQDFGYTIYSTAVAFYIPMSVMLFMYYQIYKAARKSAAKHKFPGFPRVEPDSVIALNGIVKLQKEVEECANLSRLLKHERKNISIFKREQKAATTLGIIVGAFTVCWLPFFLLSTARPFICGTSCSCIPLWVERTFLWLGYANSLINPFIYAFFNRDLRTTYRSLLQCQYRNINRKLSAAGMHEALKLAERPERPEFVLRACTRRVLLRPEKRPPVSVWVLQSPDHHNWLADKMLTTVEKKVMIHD

hD3 = target: T8, hD3 (Homo sapiens, UniProt P35462); experiment: Radioligand binding, dopamine D3 ([3H]spiperone); conditions: Table 4; [3H]spiperone 1 nM; read-out: Binding affinity, IC50 (nM) D3
T8 construct: purchased BioSignal Packard Inc., Montreal, Canada
T8 sequence (P35462 whole entry): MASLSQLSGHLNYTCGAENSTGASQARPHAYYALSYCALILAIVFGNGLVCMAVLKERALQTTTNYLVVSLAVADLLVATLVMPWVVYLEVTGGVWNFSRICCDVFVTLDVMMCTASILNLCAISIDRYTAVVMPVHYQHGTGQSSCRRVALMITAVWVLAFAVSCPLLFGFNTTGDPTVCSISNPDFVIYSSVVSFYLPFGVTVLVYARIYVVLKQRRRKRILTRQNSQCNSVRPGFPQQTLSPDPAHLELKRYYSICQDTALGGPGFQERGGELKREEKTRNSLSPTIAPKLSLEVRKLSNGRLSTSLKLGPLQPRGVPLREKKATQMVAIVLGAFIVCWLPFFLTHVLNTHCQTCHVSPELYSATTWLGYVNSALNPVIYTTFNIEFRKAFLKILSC
Description: as §1, §2

[2] = Table 2, 1.87 nM [3H]LSD, 37 C, 60 min, read-out: IC50 (nM), binding affinity to the 5-HT6 receptor
[3] = Table 4, read-out: Binding affinity, IC50 (nM) 5-HT6

| SMILES | IC50 (5-HT2c) | IC50 [1, 2] | IC50 [1, 3] | IC50 (D1) | IC50 (hD4.2 receptor) | IC50 (5-HT2a) | IC50 (5-HT1a) | IC50 (hD2L) | IC50 (5-HT7) | IC50 (hD3) | melting point |
| --- | --- | --- | --- | --- | --- | --- | --- | --- | --- | --- | --- |
| CN1CCN(c2cc(Cl)cc3c2C(=O)[C@@](C)(c2ccc(N)cc2)C(=O)N3Cc2ccccc2)CC1 (stereo in doubt) [Example 4, 3-(4-Amino-phenyl)-1-benzyl-7-chloro-3-methyl-5-(4-methyl-piperazin-1-yl)-1H-quinoline-2,4-dione] | 5780 nM | 7.4 nM | 15 nM | 7090 nM | 8190 nM | 7010 nM | 5800 nM | 6550 nM | 5050 nM | 8110 nM | – |
| COc1ccc(C2(C)C(=O)c3c(N4CCNCC4)cc(Cl)cc3N(Cc3ccc4ccccc4n3)C2=O)cc1 (stereo not shown) [Example 44, 7-Chloro-3-(4-methoxy-phenyl)-3-methyl-5-piperazin-1-yl-1-quinolin-2-ylmethyl-1H-quinoline-2,4-dione] | 7690 nM | 6.9 nM | 19 nM | 7650 nM | 9270 nM | 6100 nM | 7530 nM | > 1000 nM | 7650 nM | 9840 nM | 200 to 201 °C |
| CC1(c2ccc(N)cc2)C(=O)c2c(N3CCNCC3)cc(Cl)cc2N(Cc2ccccc2)C1=O (stereo not shown) [Example 16, 3-(4-Amino-phenyl)-1-benzyl-7-chloro-3-methyl-5-piperazin-1-yl-1H-quinolin-2,4-dione] | 9880 nM | 3.2 nM | 17.6 nM | 9010 nM | 8910 nM | 8080 nM | 6020 nM | 6740 nM | 9350 nM | 9070 nM | – |
| CC1(c2ccc(O)cc2)C(=O)c2c(N3CCNCC3)cc(Cl)cc2N(Cc2ccccc2Br)C1=O (stereo not shown) [Example 36, 1-(2-Bromo-benzyl)-7-chloro-3-(4-hydroxy-phenyl)-3-methyl-5-piperazin-1-yl-1H-quinoline-2,4-dione] | 7160 nM | 29 nM | 15.1 nM | 6030 nM | 9000 nM | 6210 nM | 9320 nM | 7990 nM | > 10000 nM | 9610 nM | 264 to 265 °C |
| CC1(c2ccc(O)cc2)C(=O)c2c(N3CCNCC3)cc(Cl)cc2N(Cc2cccc(N)c2)C1=O (stereo not shown) [Example 26, 1-(3-Amino-benzyl)-7-chloro-3-(4-hydroxy-phenyl)-3-methyl-5-piperazin-1yl-1H-quinoline-2,4-dione] | 7330 nM | 8.7 nM | 19 nM | 6950 nM | 9410 nM | 5750 nM | 5900 nM | 8410 nM | 5630 nM | 9120 nM | – |
| CC1(c2ccc(O)cc2)C(=O)c2c(N3CCNCC3)cc(Cl)cc2N(Cc2ccc3ccccc3c2)C1=O (stereo not shown) [Example 40, 7-Chloro-3-(4-hydroxy-phenyl)-3-methyl-1-naphthalen-2-ylmethyl-5-piperazin-1-yl-1H-quinoline-2,4-dione] | 8510 nM | 55.7 nM | 18.2 nM | 7510 nM | 8980 nM | 9480 nM | 7510 nM | 8540 nM | 7810 nM | 9310 nM | – |
| CC1(c2ccc(O)cc2)C(=O)c2c(N3CCNCC3)cc(Cl)cc2N(Cc2ccccc2O)C1=O (stereo not shown) [Example 30, 7-Chloro-1-(2-hydroxy-benzyl)-3-(4-hydroxy-phenyl)-3-methyl-5-piperazin-1-yl-1H-quinoline-2,4-dione] | 9450 nM | 15.9 nM | 18.1 nM | 8000 nM | 8760 nM | 8400 nM | 7240 nM | 7650 nM | 7340 nM | 9780 nM | – |
| CC1(c2ccc(O)cc2)C(=O)c2c(N3CCNCC3)cc(Cl)cc2N(Cc2cccc(Br)c2)C1=O (stereo not shown) [Example 34, 1-(3-Bromo-benzyl)-7-chloro-3-(4-hydroxy-phenyl)-3-methyl-5-piperazin-1-yl-1H-quinoline-2,4-dione] | 7030 nM | 3.6 nM | 16.8 nM | 9160 nM | 9350 nM | 6960 nM | 7550 nM | 8050 nM | 9070 nM | 9000 nM | – |
| CCN(CC)c1ccc(C2(C)C(=O)c3c(N4CCNCC4)cc(Cl)cc3N(Cc3ccccc3)C2=O)cc1 (stereo not shown) [Example 17, 1-Benzyl-7-chloro-3-(4-diethylamino-phenyl)-3-methyl-5-piperazin-1-yl-1H-quinoline-2,4-dione] | 9810 nM | 41.5 nM | 21.5 nM | 8410 nM | 9110 nM | 7550 nM | 8550 nM | 9050 nM | > 10000 nM | 8200 nM | – |
| CCNc1ccc(C2(C)C(=O)c3c(N4CCNCC4)cc(Cl)cc3N(Cc3ccccc3)C2=O)cc1 (stereo not shown) [Example 18, 1-Benzyl-7-chloro-3-(4-ethylamino-phenyl)-3-methyl-5-piperazin-1-yl-1H-quinoline-2,4-dione] | 8450 nM | 14.6 nM | 15.5 nM | > 10000 nM | 8990 nM | 7010 nM | 8050 nM | > 1000 nM | 6010 nM | 8900 nM | – |
| CC1(c2ccc(O)cc2)C(=O)c2c(N3CCNCC3)cc(Cl)cc2N(Cc2cccnc2)C1=O (stereo not shown) [Example 38, 7-Chloro-3-(4-hydroxy-phenyl)-3-methyl-5-piperazin-1-yl-1-pyridin-3-ylmethyl-1H-quinoline-2,4-dione] | 9140 nM | 30.6 nM | 20.4 nM | 9410 nM | 9240 nM | 8400 nM | 8450 nM | 7690 nM | 6410 nM | 9310 nM | – |
